The values below come from a melting point compilation (Tetko et al.; mined from patent text by program, amines drawn as free bases though some values may be those of a salt).

As to `Nc1nc(O)c2ncn(C=C3CC3CO)c2n1` (stereo not drawn), the melting point (in general, the temperature, or range, at which the solid turns liquid) fell in the range of 218 to 221 °C.
Regarding `CCCCC(=O)Nc1c(C(=O)OC)cc(Cl)cc1[N+](=O)[O-]`, the melting point fell in the range of 84 to 85 °C.
`COc1cc2ncnc(N3CCN(C(=O)Nc4ccc(CC(C)C)cc4)CC3)c2cc1OC` displayed a melting point of 215 to 217 °C.
Regarding `COc1cc(Nc2nc(-c3ccccc3)cs2)ccc1-c1cnco1`, the melting point lay within 193 to 195 °C.
In the case of `CCCc1nc2c(N)nc3ccccc3c2n1CCCCN(OC)C(N)=O`, the melting point lay within 179 to 181 °C.
As to `CCCCCCCCC#CCC#CCC#CCS(=O)(=O)CC(=O)NCC`, the melting point was 83 °C.
`CCOC(=O)C1=C(C)N(C(C)=O)C(c2csc(C)n2)=NC1c1cccc(C)c1` (stereo not drawn): the melting point was in the range of 113 to 114 °C.
`O=C(CCl)c1ccc(-c2ccccc2Cl)cc1` showed a melting point of 47 °C.
`[N-]=[N+]=NC[C@H]1CN(c2ccc(N3CCSCC3)c(F)c2)C(=O)O1` came in with a melting point of 91.5 to 93 °C.
With `CCOc1ccc(-c2ccc(S(=O)(=O)NC(C(=O)O)C3CCN(CC(C)C)CC3)s2)cc1` (stereo not drawn), the melting point lay in the range of 220 to 225 °C.
Under `CCOC(=O)CNCC1CC2c3cccc4[nH]cc(c34)CC2N(C)C1` (stereo not drawn) stands 174 to 176 °C; under `FC(F)(F)C(c1cc(-c2ccccc2)c(-c2ccccc2)[nH]1)C(F)(F)F`, 112 to 114 °C; under `CC(C)(C)OCc1cc(C(C)(C)C)cc(COC(C)(C)C)c1SSc1c(COC(C)(C)C)cc(C(C)(C)C)cc1COC(C)(C)C`, 120 to 121 °C.
With `O=C(O)[C@@H]1C[C@@H](O)CN1S(=O)(=O)c1ccc2ccccc2c1`, the melting point stood at 140 °C.
As to `CCCc1nc2c(N)nc3c(c2n1CCCC(=O)N1CCOCC1)CCCC3`, the melting point lay in the range of 181 to 183 °C.
In turn, `Cc1cc(=O)oc2cc(S)ccc12` had a melting point of 136 °C.
As for `CCOP(=O)(CNCc1ccnc(-c2cc(OC)c(O)c(OC)c2)c1)OCC`, the melting point is 124 to 126 °C.
`CCOC(=O)c1cc(=O)c2c(OCCOc3ccc(NC(C)=O)cc3)cccc2o1` had a melting point of 220 to 222 °C.
As for `COc1cc(-c2nc3ccccc3n2Cc2ccccc2C)cc(OC)c1OC`, the melting point was 140 °C.
Take `COC(=O)c1ccccc1Nc1c(Cl)cccc1Cl`: the melting point lay within 100 to 103 °C.
Molecule `CCN(CC)C(=O)c1nc(-c2ccc(Cl)cc2Cl)[nH]c1C(F)(F)F` gave a melting point of 186 to 190 °C.
As for `COc1ccc(CSc2nc3cnccc3[nH]2)cc1`, the melting point was in the range of 160 to 161 °C.
`Brc1cc(Br)cc(Cc2cc(Br)cc(Br)c2)c1`: the melting point is 196 °C.
In the case of `COc1ccc(N2Cc3ccccc3P2(=O)C(C)C)cc1` (stereo not drawn), the melting point fell in the range of 135 to 137 °C.
`COc1ccc2c(c1)c(CN(O)C(=O)N(C)C)c(C)n2C(=O)c1ccc(Cl)cc1` came in with a melting point of 173 to 174 °C.
For `CCCc1c(OCCCOc2cccc3c2CCCC3)ccc2c1OC(CCCC=O)(CCCC=O)CC2=O`, the melting point was 72 to 73 °C.
Molecule `CCc1ccc2c(O)ccnc2c1` displayed a melting point of 148 to 152 °C.
Turning to `C#CCN(C(=O)C1CC1)c1cccc(-c2ccnc3c(C(=O)c4cccs4)cnn23)c1`, the melting point is 221 to 223 °C.
Regarding `COC(=O)Cc1cn(C)nc1O`, the melting point lay in the range of 118 to 119 °C.
For `Cc1nc2c(c(-c3cccc([N+](=O)[O-])c3)c1C(=O)OCCO)C(=O)OC2`, the melting point is 130 °C.
On to `COc1cc(C(=O)O)ccc1Cn1cc(/C=C/C(=O)N2CCCC2)c2ccc(/C=C/C(=O)N3CCCC3)cc21`, for which the melting point was in the range of 286 to 288 °C.
With `CC(C)[C@H](NC(=O)N(C)Cc1ccccn1)C(=O)N[C@@H](Cc1ccccc1)[C@@H](O)[C@@H](O)[C@H](Cc1ccccc1)NC(=O)OC(C)(C)C`, the melting point lay in the range of 91 to 93 °C.
As for `NC(=O)N1CCC2(CC1)CN(c1ccccc1[N+](=O)[O-])c1ccccc12`, the melting point is 218 to 219 °C.
For `CCCCc1oc2ccccc2c1C(O)c1ccc(O)cc1` (stereo not drawn) the value was 94 to 96 °C; for `O=C(O)c1ccc2cnc3ccccc3c2c1`, 155 °C; for `N#Cc1nccnc1Oc1cccc(C(F)(F)F)c1`, 68 to 70 °C.
`COc1ccccc1N1CCN(Cc2ccccc2CCC(=O)O)CC1` displayed a melting point of 155 to 158 °C.
Turning to `Cc1c(C)c2c(c(C)c1N)CC(C)(CN1CCc3c([nH]c4ccccc34)C1)O2` (stereo not drawn), the melting point lay within 150 to 153 °C.
For `N#CSCCNc1ccc([N+](=O)[O-])cc1Cl` the value was 148 to 150 °C; for `CCOC(=O)c1[nH]c(C)c(C)c1OCCCl`, 81 to 83 °C.
As to `CC(=O)c1ccc(-c2ccc(Br)cc2)c(F)c1`, the melting point fell in the range of 89 to 91 °C.
For `Clc1cccc2c(C3=CCNCC3)c[nH]c12`, the melting point was in the range of 197 to 201 °C.
For `CC#Cc1c(C#N)nn(-c2c(Cl)cc(C(F)(F)F)cc2Cl)c1N`, the melting point is 226 to 228 °C.
As to `CCCSP(=O)(OCC)Oc1ccc2cc3ccccc3cc2c1` (stereo not drawn), the melting point was 79 to 83 °C.
As to `O=C(NCC1CCCCCC1)c1cc(-c2cccnc2C(=O)O)ccc1Cl`, the melting point lay in the range of 166 to 168 °C.
`NC1=NC=C(c2ccc(C(F)(F)F)cc2)c2ccccc2C1`: the melting point is 167 to 170 °C.
For `Cc1ccccc1C(=O)Nc1ccc(C(=O)N2Cc3ccnn3Cc3ccccc32)cc1`, the melting point lay in the range of 142 to 146 °C.
Regarding `Cc1ccc(-c2ccc(C(=O)Nc3cc4ncc(CN5CCCC5)cc4cc3C)c(F)c2)cc1`, the melting point lay within 176 to 179 °C.
Consider `Cc1c(C(=O)N=C(N)N)cc(S(C)(=O)=O)c(-n2ccnc2)c1C`, for which the melting point turned out to be 249 °C.
Molecule `CSc1nc(CCC(F)(F)F)nc2sc(C)cc12` returned a melting point of 81 to 83 °C.
Molecule `CC1CCN(CC#CCN2C(=O)c3cccc4c3N(CC4)c3ccc(Br)cc32)CC1` yielded a melting point of 154 to 155 °C.
`CCOCc1ccc(C=C(C)c2ccc3c(c2)C(C)(C)CCO3)cc1` yielded a melting point of 59 to 60 °C.
`CS(=O)(=O)c1ccc(-c2onc3c2-c2ccccc2CC3)cc1`: the melting point is 181 to 182 °C.
Under `CC(C)c1nc2[nH]c(=O)ccc2c(-c2ccc(F)cc2)c1/C=C/C=O` stands 261 °C.
`CCc1noc(-c2cn(-c3ncc(OC(C)C)cn3)cn2)n1` had a melting point of 156 to 157 °C.
Consider `CN1Cc2cncn2-c2cccnc2C1=O`, for which the melting point was 199 to 201 °C.
The molecule `COc1ccc(-c2cc(C(=O)NCc3ccccc3)c(=O)n(CC3CCCC3)n2)cc1` gave a melting point of 108 °C.
Take `O=C(COc1ccccc1Br)c1ccccc1`: the melting point is 112 to 113 °C.
Under `CCc1[nH][nH]c(=O)c1Cc1ccc2ccccc2c1` stands 145 to 147 °C; under `COC(COc1cc(C)cc(O)c1)OC`, 73 to 75 °C.
In turn, `COc1cccc(-c2nc3n(n2)CCc2cc(OC)c(OC)cc2-3)c1` gave a melting point of 132 to 133 °C.
Molecule `CC=CCn1c(C)c(C)c2cnnc(OCc3ccc(F)cc3F)c21` registered a melting point of 93 to 95 °C.
Under `CC1(C)Nc2ccc(Cl)cc2N(C2CC2)C1=O` stands 132 to 133 °C; under `Oc1cc2ccccn2n1`, 127 to 128 °C; under `CN(C(=O)C1c2ccccc2COc2ccc(Br)cc21)c1ccccc1` (stereo not drawn), 148 °C.
For `CCc1cc([N+](=O)[O-])c(N)c([N+](=O)[O-])c1COC`, the melting point was in the range of 71 to 73 °C.
As for `CC(C)=NNc1cc2c(nn1)CCN(C(=O)C1CCC1)C2`, the melting point lay within 175 to 178 °C.
As for `CCOC(=O)n1c(Cc2ccccc2)noc1=O`, the melting point came out at 129 °C.
On to `O=C1OCc2cc([N+](=O)[O-])c(Oc3ccc(F)cc3F)cc21`, for which the melting point fell in the range of 164 to 166 °C.
As to `COc1cccc(-n2c(=O)n(O)c(=O)c3cc(F)c(N4CCN(C)CC4)cc32)c1`, the melting point lay in the range of 158 to 160 °C.
In turn, `CC1(C)c2c(ccc3cc(C(N)=O)c(Cn4cncn4)cc23)OC1O` (stereo not drawn) gave a melting point of 223 to 225 °C.
As for `O=C(O)c1ccc(C(=O)/C=C/c2ccc(-c3nccs3)cc2)cc1`, the melting point is 232 to 235 °C.
`O=C(N1CCOCC1)N1Cc2c(-c3noc(C4CC4)n3)ncn2-c2ccccc21`: the melting point was determined as 198 °C.
The molecule `N=C(N)Nc1nc(CO)cs1` gave a melting point of 163 to 165 °C.
Under `O=Cc1ccc(-c2ccc(Br)cc2)nc1` stands 108 to 109 °C.
For `CCn1nc(-c2ccccc2F)nc1-c1ccccc1C(F)(F)F` the value was 72 to 74 °C; for `CC(C)N(C=O)C(=O)c1nc(Cl)c(Cl)[nH]1`, 142 °C; for `COc1ccc(-c2cnc3[nH]c4ccccc4c3c2)cc1`, greater than 220 °C.
For `Nc1cc(C(F)(F)C(F)(F)OC(F)(F)C(F)(F)OC(F)(F)C(F)(F)c2ccc(O)c(N)c2)ccc1O` the value was 150 to 152 °C; for `Cc1ccc(-c2nccc(C)n2)cc1`, 80 to 81 °C; for `CCOC(=O)c1cn(N(C)C)c2ccccc2c1=O`, 119 to 120 °C.
With `O=C1c2cc(OCc3ccccn3)ccc2CC1Cc1ccccc1` (stereo not drawn), the melting point lay within 94 to 97 °C.
`CC(c1ccc2c(c1)N(Cc1ccc(S(C)(=O)=O)cc1)c1ccccc1S2)N(O)C(N)=O` (stereo not drawn): the melting point is 143 to 145 °C.
For the molecule `O=C(O)c1ccc(OCC2CCCCC2)c([N+](=O)[O-])c1`, the melting point lay in the range of 200 to 202 °C.
The molecule `CNC(=O)CC1CSc2c(C(=O)OC(C)C)ccn21` (stereo not drawn) returned a melting point of 117 to 119 °C.
Under `CC(C)(C)[S@](=O)N1CCC[C@@H]1c1ccc(Cl)cc1` stands 80 °C; under `Cc1nc[nH]c1CSCCNC(=N)NC#N`, 125 to 127 °C.
In turn, `Brc1cccc(C#Cc2ccncc2)c1` had a melting point of 140 to 142 °C.
As for `CSc1ccc(C(=O)c2cc(C)cc3c2NC(=O)C3)cc1`, the melting point is 176 to 178 °C.
`Oc1ccc(Cn2ccn(C3CCc4ccccc4C3)c2=S)cc1O` (stereo not drawn): the melting point is 173 to 174 °C.
As for `N#CS/C=C\C(=O)OCc1ccccc1`, the melting point is 48.5 to 50.5 °C.
Under `CCNS(=O)(=O)c1cccc(OCc2nc3ccccc3n2C)c1` stands 169 to 173 °C; under `Cc1c(C)c2c(c(C)c1N)C(c1ccc(C3OCCO3)cc1)CO2` (stereo not drawn), 125 to 136 °C.
